Columns and labels:
[1] = target: Cbl-b (36-427 aa truncated form, N-terminus Avi-tag) (Homo sapiens (Human), UniProt Q13191); assay: Cbl-b binding: TR-FRET displacement of BODIPY-FL probe
Procedure, shortened: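 Avi-tagged Cbl-b 36-427 preincubated 1 h at RT with streptavidin-terbium in HEPES pH 7.5/NaCl/Triton/BSA/TCEP buffer, then 1 uM BODIPY-FL inhibitor probe plus compound added for 1 h. Probe displacement read by TR-FRET; IC50 fitted.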

Human primary T cells [2] = assay: T cell activation: secreted IL-2; type: cell-based; details: 48 hours, fold over background normalized to Compound 141A
Procedure, shortened: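 Negatively selected human primary T cells on plate-bound anti-CD3 (OKT3) in serum-free medium, treated 48 h at 37° C. with serial compound dilutions in duplicate. Secreted IL-2 by bead-based cytometric assay, expressed as fold over anti-CD3/CD28 background normalized to a reference compound, then binned into ranges.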

Human primary T cells [3] = assay: T cell activation: secreted IFN-y; type: cell-based; details: 48 hours, fold over background normalized to Compound 141A
Procedure, shortened: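 Negatively selected primary human T cells (1×10^5/well, serum-free XVivo-15) on plates coated with 10 μg/mL anti-CD3 were exposed to serial compound dilutions for 48 h at 37 °C. Secreted IFN-γ was measured by cytometric bead array and expressed as fold over anti-CD3/CD28 background, normalized to a reference compound and binned into ranges A–D.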

Human primary T cells [4] = assay: T cell activation: CD69 surface expression by flow cytometry; type: cell-based; details: fold over anti-CD3 stimulated background normalized to Compound 141A
Procedure, shortened: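 Negatively selected human primary T cells (1×10^5/well, XVivo-15) were captured on plates coated with 10 μg/mL anti-CD3 (OKT3). They were exposed to serially diluted compounds in duplicate for 48 h at 37° C. CD69 was read by flow cytometry as fold over anti-CD3-only background, normalized to Compound 141A and binned into ranges.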

[5] = system: human peripheral blood pan-T cells; assay: T cell activation by small molecule inhibitors of Cbl-b (biomarker flow cytometry); type: cell-based; details: 10 μM, 48 hours
Method: Cryopreserved human peripheral blood pan-T cells (StemCell, 70024) were defrosted and resuspended in Immunocult-XF T cell Expansion Medium (StemCell, 10981). Cells were plated at 8×10^5 cells per well in 24 well plates, in presence or absence of pre-coated anti-CD3 (OKT3) antibody (ThermoFisher, 16-0037-85). Pre-coating of plates was done by diluting anti-CD3 antibody to 10 μg/mL in PBS and adding 1 ml to each well. Plates were incubated at 4° C. overnight or at 37° C. for 2 hours and washed once with PBS before use. Dilution of each small molecule cbl-b inhibitor was added. Untreated cell was used as a control. Plates were incubated for 48 hours at 37° C. with 5% CO2. T cells were fixed and permeabilized with Intracellular Fixation & Permeabilization Buffer Set (ThermoFisher, 88-8824), and continuously stained with one of PE-conjugated antibody listed in Table 10. Stained T cells were then analyzed with by flow cytometry (ThermoFisher Attune NxT). The percent of positive cells of each treated group was normalized with untreated cell and sorted into bins as follows: fold over background values from 10 to 14.9: range “A;” values from 5.0 to 9.9: range “B;” values from 2.0 to 4.9: range “C;” and values from 0.1 to 1.9: range “D.” Only for Notch1, geometric mean was used.

[6] = +CD3 (pre-coated anti-CD3 OKT3)

Cbl-b (36-427 aa truncated form, N-terminus Avi-tag), sequence (Q13191 36-427): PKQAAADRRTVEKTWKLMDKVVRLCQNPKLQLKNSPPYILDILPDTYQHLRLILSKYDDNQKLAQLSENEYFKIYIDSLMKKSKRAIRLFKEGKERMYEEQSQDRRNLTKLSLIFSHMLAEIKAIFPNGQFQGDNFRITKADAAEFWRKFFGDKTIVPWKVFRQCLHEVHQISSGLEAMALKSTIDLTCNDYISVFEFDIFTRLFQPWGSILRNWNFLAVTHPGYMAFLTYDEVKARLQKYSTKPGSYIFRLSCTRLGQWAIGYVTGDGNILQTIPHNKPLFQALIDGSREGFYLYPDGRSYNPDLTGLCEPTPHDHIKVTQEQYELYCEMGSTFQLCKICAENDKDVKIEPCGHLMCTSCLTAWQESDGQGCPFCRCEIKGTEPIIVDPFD

CCNc1cc(C2(Cc3nncn3C)COC2)cc(N2Cc3c(SC)cc(CN4CCC[C@H](C)C4)cc3C2=O)n1 [Compound 126, 2-[6-(ethylamino)-4-{3-[(4-methyl-1,2,4-triazol-3-yl)methyl]oxetan-3-yl}pyridin-2-yl]-6-{[(3S)-3-methylpiperidin-1-yl]methyl}-4-(methylsulfanyl)-3H-isoindol-1-one]
IC50 [1]: 1 to 5 nM
IL-2 1 nM (Human primary T cells [2]; 1 nM compound): C (values between 0.10 and 0.30: range “C”)
IL-2 10 nM (Human primary T cells [2]; 10 nM compound): B (values between 0.31 and 0.79: range “B”)
IL-2 100 nM (Human primary T cells [2]; 100 nM compound): A (between 0.80 and 1.40: range “A”)
IFN-y 1 nM (Human primary T cells [3]; 1 nM compound): B (values between 0.31 and 1.00: range “B;”)
IFN-y 10 nM (Human primary T cells [3]; 10 nM compound): B (values between 0.31 and 1.00: range “B;”)
IFN-y 100 nM (Human primary T cells [3]; 100 nM compound): A (fold over background between 1.10 and 2.00: range “A”)
CD69 10 nM (Human primary T cells [4]; 10 nM compound): A (values between 0.81 and 1.10: range “A”)
CD69 100 nM (Human primary T cells [4]; 100 nM compound): A (values between 0.81 and 1.10: range “A”)
Notch 1, geometric mean normalized with untreated cell (fold over background) [5, 6]: C (values from 2.0 to 4.9: range “C;”)
pCD3zeta, percent of positive cells normalized with untreated cell (fold over background) [5, 6]: D (values from 0.1 to 1.9: range “D.”)
pHS1, percent of positive cells normalized with untreated cell (fold over background) [5, 6]: C (values from 2.0 to 4.9: range “C;”)
pLYN, percent of positive cells normalized with untreated cell (fold over background) [5, 6]: D (values from 0.1 to 1.9: range “D.”)
pPLCg1, percent of positive cells normalized with untreated cell (fold over background) [5, 6]: C (values from 2.0 to 4.9: range “C;”)
pPLCg2, percent of positive cells normalized with untreated cell (fold over background) [5, 6]: D (values from 0.1 to 1.9: range “D.”)
pZAP70, percent of positive cells normalized with untreated cell (fold over background) [5, 6]: C (values from 2.0 to 4.9: range “C;”)
Notch 1, geometric mean normalized with untreated cell (fold over background) ([5]; −CD3): D (values from 0.1 to 1.9: range “D.”)
pCD3zeta, percent of positive cells normalized with untreated cell (fold over background) ([5]; −CD3): C (values from 2.0 to 4.9: range “C;”)
pHS1, percent of positive cells normalized with untreated cell (fold over background) ([5]; −CD3): B (values from 5.0 to 9.9: range “B;”)
pLYN, percent of positive cells normalized with untreated cell (fold over background) ([5]; −CD3): C (values from 2.0 to 4.9: range “C;”)
pPLCg1, percent of positive cells normalized with untreated cell (fold over background) ([5]; −CD3): C (values from 2.0 to 4.9: range “C;”)
pPLCg2, percent of positive cells normalized with untreated cell (fold over background) ([5]; −CD3): B (values from 5.0 to 9.9: range “B;”)
pZAP70, percent of positive cells normalized with untreated cell (fold over background) ([5]; −CD3): C (values from 2.0 to 4.9: range “C;”)

Source: patent publication US20250304563A1, “ACTIVATORS OF EFFECTOR T CELLS” (Orum Therapeutics, Inc., priority 2022, published 2025)
